Experimental data from patent US11931373B2, “HSP90 activator AHA1 drives production of pathological tau aggregates” (University of South Florida, priority 2017, dated 2024).

Assays:
Hsp90 = test: Luciferase refolding assay in PC3-MM2 cells; format: cell-based; settings: 2 hours; for Hsp90-mediated refolding of denatured luciferase: 0.097-100 μM; for IC50 of Hsp90-mediated luciferase refolding activity: concentrations examined 100, 25, 6.25, 1.56, 0.39 and 0.097 μM
Protocol: Luciferase refolding assay. Compound dissolved in DMSO at the indicated concentrations or a DMSO control was evaluated in a luciferase refolding assay in PC3-MM2 cells as previously described (Hall, et al. J. Med. Chem. 2016, 59, 925-933) and dose-response curves of the luminescence signal relative to DMSO control were generated using GraphPad Prism 5.0.

Aha1 and Hsp90 complexes = target: T1, Aha1 and Hsp90 complexes (Homo sapiens, UniProt O95433); test: Co-immunoprecipitation of Hsp90α with Aha1 from PC3-MM2 cells; format: cell-based; settings: 10 μM, 24 hours
T1 construct: endogenous in cells; host or cells: PC3-MM2 cells
T1 sequence (O95433 whole entry, one chain of several): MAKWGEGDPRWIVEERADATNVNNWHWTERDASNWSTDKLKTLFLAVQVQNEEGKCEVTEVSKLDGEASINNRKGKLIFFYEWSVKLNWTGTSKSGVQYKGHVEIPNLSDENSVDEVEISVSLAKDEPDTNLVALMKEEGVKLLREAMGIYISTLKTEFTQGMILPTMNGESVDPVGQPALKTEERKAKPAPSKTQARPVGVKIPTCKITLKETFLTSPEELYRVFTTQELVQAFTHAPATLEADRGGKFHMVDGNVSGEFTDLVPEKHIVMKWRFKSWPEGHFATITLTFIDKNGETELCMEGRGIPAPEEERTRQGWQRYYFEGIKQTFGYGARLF
Protocol: (§1) Co-immunoprecipitation. Co-immunoprecipitation of Hsp90α with Aha1 from PC3-MM2 and iHek P301L cells incubated with the indicated compounds for 24 hours were performed as previously described (Ghosh, et al. ACS Chem. Biol. 2015, 10, 577-590).

[1] = target: T2, Recombinant human P301L tau with Hsp90 and Aha1 (Homo sapiens, UniProt O95433); test: Thioflavin T fluorescence assay of tau fibril formation; format: biochemical; settings: 10 μM compound vs DMSO, tau with Hsp90 alone or Hsp90 and Aha1
T2 construct: His tag (with TEV site) (N, cleaved yes); made in house; host or cells: E. coli (BL21) one-shot star, pet28a (tau and Aha1); Hsp90α was a gift from Dr. Johannes Buchner
T2 sequence (O95433 whole entry, stated change not applied): as the sequence (O95433 whole entry, one chain of several) above
Protocol: (§2) Protein Expression. Recombinant human P301L tau, Aha1, Aha1 E67K, p23, FKBP51, FKBP52, and CDC37 were expressed and purified. Hsp90α protein was a kind gift from Dr. Johannes Buchner. Recombinant human P301L tau, Aha1, Aha1 E67K, p23, FKBP51, FKBP52, and CDC37 were cloned into bacterial expression vector, pet28a with a His tag followed by a TEV sequence. Plasmids were transformed into E. coli (BL21) one-shot star cells and plated onto kanamycin-agar plates. Plates were grown at 37° C. for approximately 16 hours. 10 mL LB broth with kanamycin starter cultures were then inoculated with a colony and the starter culture grown for 8 hours. 1 L cultures were then inoculated at 1:100 dilution and grown to OD600 of 0.8. Cultures were induced with the addition of 1 mM IPTG and the incubator temperature was reduced to 16° C. Cultures were then grown for 14 hours. Cells were then pelleted at 3,500×g for 30 minutes and supernatant discarded. Pellets were resuspended in lysis buffer (20 mM Tris-HCl pH 8.0, 500 mM NaCl, 10 mM Imidazole with protease inhibitors) and frozen at −80° C. Bacterial pellets were then thawed and lysed by sonication. Lysates were then spun at 50,000×g for 1 hr. […]
Thioflavin T Fluorescence Assay. […] Fluorescence was read at 440 nm excitation and 482 nm emission in a BioTek Synergy H1 plate reader at indicated time points. […]

binding of Aha1 to Hsp90 = target: T3, binding of Aha1 to Hsp90 (Homo sapiens, UniProt O95433); test: Co-immunoprecipitation of Hsp90 with Aha1 from iHEK cells; format: cell-based; settings: 10 μM, 24 hours
T3 construct: Immunoprecipitated Aha1 from iHEK cells treated±10 μM KU-177 for 24 hours; endogenous in cells; host or cells: iHEK-P301L cells (tetracycline-inducible P301L tau)
Protocol: (§3) Cell culture and transfection. iHek-P301L cells (Ghosh, et al. ACS Med. Chem. Lett. 2016, 7, 813-818) and luciferase expressing PC3-MM2 cells (Ghosh, et al. ACS Med. Chem. Lett. 2016, 7, 813-818) were cultured in DMEM media supplemented with 10% FBS and 1% Penicillin-Streptomycin (Invitrogen). Inducible cells were incubated with 3 μg of tetracycline for 72 h. 48 h prior to harvest, transfections were performed with 2.5 μL Lipofectamine 2000 (Invitrogen) per 1 μg of DNA, which was incubated in serum-free Opti-MEM for 5 minutes before adding the mixture dropwise to the cells. KU-177 was added 24 h prior to harvest at indicated concentrations. Cells were harvested in Tsaio TBS buffer (50 mM Tris Base, 274 mM NaCl, 5 mM KCl, pH 8.0) containing protease inhibitors. Samples were prepared as previously described (Ramsden, et al. J. Neurosci. 2005, 25, 10637-10647) to obtain soluble (S1) and sarkosyl-insoluble (P3) fractions.
as §1

tau in iHEK-P301L cells = test: Soluble and sarkosyl-insoluble tau in iHEK-P301L cells (Western blot); format: cell-based; settings: 10 μM
Protocol: as §3
Western blot and dot blot analysis. Cell and mouse brain tissues samples were analyzed by Western blot using 4-15% SDS gradient gels (BioRad). Antibody dilutions were 1:1000 unless otherwise stated, and all secondary antibodies were used at 1:1000 (Southern Biotech). Blots were developed using ECL (Pierce) on a LAS-4000 mini imager (GE Healthcare). For dot blots, proteins were applied onto a wet nitrocellulose membrane and dried by vacuum. […]

[2] = tested on: recombinant P301L tau fibrils; test: Transmission electron microscopy of tau fibrils; format: biochemical, human; settings: KU-177 vs DMSO control
Protocol: as §2, with “hr. Next, the supernatant was purified by nickel affinity chromatography (Nickel Resin, Fisher #PI88222). Protein purity and expression was then checked by Coomassie stained SDS-PAGE.” for “hr.”

Row | Aha1 and Hsp90 complexes (immunoprecipitation of Aha1, Western blot) (Aha1 and Hsp90 complexes) | binding of Aha1 to Hsp90 (immunoprecipitation of Aha1, Western blot) (binding of Aha1 to Hsp90) | SMILES | Hsp90-mediated refolding of denatured luciferase (Hsp90) | Recombinant P301L tau fibril formation measured by ThT fluorescence [1] | IC50 of Hsp90-mediated luciferase refolding activity (Hsp90) | sarkosyl-insoluble tau (tau in iHEK-P301L cells; iHEK-P301L cells transfected with Aha1-WT, Aha1-E67K or empty vector) | soluble, phosphorylated tau (tau in iHEK-P301L cells; iHEK-P301L cells) | tau fibril formation observed by TEM [2]
1 | inhibited | – | COc1cccc(-c2cc(C(=O)Nc3cc4ccc(O[C@@H]5OC(C)(C)[C@H](OC)C(O)[C@@H]5O)c(OC)c4oc3=O)ccc2OC)c1 (stereo partly shown) [KU-174] | inhibited | – | – | – | – | –
2 | inhibited | inhibited the binding of Aha1 to Hsp90 | COc1cccc(-c2cc(C(=O)Nc3cc4ccc(OC(C)=O)c(OC)c4oc3=O)ccc2OC)c1 [KU-177] | did not inhibit | significantly reduce tau fibril formation | higher than the range of concentrations examined here | reduce insoluble tau | increased soluble, phosphorylated tau | robust reduction in tau fibril formation
3 | inhibited | – | COc1cccc(-c2cc(C(=O)Nc3cc4ccc(O)c(OC)c4oc3=O)ccc2OC)c1 [KU-308] | did not inhibit | – | higher than the range of concentrations examined here | – | – | –
